Data set [1] deals with BT549. The experiment in a line: high-throughput lentiviral shRNA mammosphere formation (MSFE) screen. The format is cell-based, human. The settings on record: Z-score of mammosphere formation vs plate mean, one shRNA per well, 2000 cells/well, 8 biological replicates. As to the method:
(§1) In previously published results, the inventors described a breast cancer stem cell signature that comprised a set of 493 statistically significant, differentially expressed genes that were present in a tumorigenic subpopulation of breast cancer cells (Creighton et al. 2009). The biological confirmation of the significance of these differentially expressed genes was conducted using a shRNA-based gene knockdown approach, correlating the selective knockdown of target genes with mammosphere formation efficacy (MSFE), an in vitro assay for self-renewal. A library of shRNAs which targets the entire human genome (Open Biosystems, Boston, Mass., USA) was used to create a sub-library of shRNAs against the 493 differentially expressed genes in the tumorigenic signature. A total of 1124 shRNAs (˜2-3 shRNA per gene), and appropriate control shRNAs that were encoded in the pGIPZ vector with a green fluorescent protein tag were selected and arrayed on 13×96-well microtiter plates.
(§2) These shRNAs were packaged into lentiviral particles using a second-generation lentiviral packaging system (Addgene, Cambridge, Mass., USA) in 293T cells plated on 96-well plates. The supernatant was then harvested for transduction and expression in a wide range of cell types. Specifically, lentiviruses were collected 3 days after transfection, frozen at −80° C. immediately, and then thawed for transducing two different breast cancer cell lines SUM159PT (American Type Culture Collection; Manassas, Va., USA) and BT549 (ATCC) with 8 biological replicates. Cells were plated in 13×96-well ultra-low attachment plates, at 2000 cells/well, with one shRNA being transduced per well using the Biomek 3000 automated workstation (Beckman Coulter; Brea, Calif. USA), in order to ensure reproducibility and accuracy.
(§3) The lentiviral transduction rate (˜80-90%) in these cell lines was evaluated by fluorescence microscopy using the GFP tag in the pGIPZ vector. MSFE was then assessed in a high throughput screening approach of all 493 genes.
(§4) For shRNA knockdown studies, the mean and the standard deviation from all measurements of each plate for each replicated experiment were estimated. The Z-score was calculated by subtracting the mean of the plate values and dividing this difference by the standard deviation. […] For tumor volume fold-change comparisons, one-way Anova was used to compare different treatment groups. This was followed by Tukey analysis for a pairwise comparison of different treatment groups. For the tumor recurrence studies, events were defined as first appearance of tumor >50 mm^3 after completion of treatment. Time to recurrence was derived by Kaplan-Meier method, with differences compared using the generalized Mann-Whitney-Wilcoxon rank-sum test.
(§5) Previously, a breast cancer stem cell signature was identified comprising 493 statistically significant differentially expressed genes (Creighton et al., 2009). The biological significance of this gene set was confirmed by conducting shRNA-based gene knockdown, and correlating the selective knockdown of target genes using mammosphere-forming efficiency (MSFE), an in vitro assay for self-renewal. As described in the previous examples, a library of shRNAs targeting the entire human genome (Open Biosystems, MA, USA) was used to create a sub-library of shRNAs against the differentially expressed genes in the tumorigenic signature. Using these genes along with appropriate control shRNAs, a total of 1124 shRNAs (˜2-3 shRNA per gene) were tagged with green fluorescent protein, and encoded in pGIPZ vector, and then arrayed on to 13×96-well plates. These shRNAs were packaged into lentiviral particles using a second-generation lentiviral packaging system (Thermo-Fischer, USA) in 293T cells plated in 96-well plates. The supernatant was then harvested for transduction and expression in a wide range of cell types. […]

Data set [2] has as its system SUM159. The data set is described as above. Type of data set: cell-based, human. The settings on record: Z-score of mammosphere formation vs plate mean, one shRNA per well, 2000 cells/well, 8 biological replicates. How it is done: as §1, §2, §3, §4, §5
Data set [3] relates to SUM159. Described as above. The settings on record: positive control; for mammosphere forming efficiency: increasing concentration, SUM159 cells. The format is cell-based, human.
Data set [4] has as its system BCM-2665A human primary tumor. The data set is described as follows: docetaxel treatment of BCM-2665A xenograft, tumor growth and ALDF staining. The format is in vivo, SCID/Beige mice. As to the method:
SCID/Beige mice were inoculated with BCM-2665A human primary tumor tissues. After tumors reached 1 cm^3 in size, the tumor mice were treated with 20 mg/kg docetaxel. […] The residual tumor tissues were collected at the end of the experiment, treated with collagenase, and single cells were stained with Aldefluor® reagent (ALDF). Positive staining by ALDF is one of the characteristic markers for TIC. The percentage of ALDF-positive cells was higher in the docetaxel-treated tumor, than in the control samples.

For a further data set, the system named is MDAMB231 lung metastasis. The experiment in a line: in vivo lung metastasis of luciferase-tagged MDAMB231, IVIS imaging. Also noted: species or system SCID-beige mice. The settings on record: siRNA in cationic liposomes twice weekly, week six. As to the method:
3 million cells MDAMB231 cancer cells, stably transfected with luciferase, were injected in the mammary fat pad of SCID-beige mice and were randomized into 3 groups: (1) vehicle+scrambled siRNA, (2) vehicle+MLF2 siRNA, and (3) vehicle+RPL39 siRNA, and treated with siRNA packaged liposomes twice weekly for 6 weeks. The mice were injected with D-luciferin every week for 6 weeks to determine lung metastases using IVIS imaging (Perkin Elmer). The primary tumors were removed by week 5 to continue this study without increasing the primary tumor burden to 10% of body weight.
To assess the effects of RPL39 and MLF2 siRNA on lung metastasis, SCID-Beige mice were injected with luciferase-tagged MDAMB231 cells and treated with siRNA against RPL39 or MLF2 packaged in cationic liposomes, twice weekly simultaneously, and then sacrificed at week six.

The subject of data set [5] is BT549. The data set is described as follows: in vitro MSFE with nanoliposome/silicon particle packaged siRNA. Type of data set: cell-based, human. The settings on record: BT549. As to the method:
“Claudin-low”-like human breast cancer cell lines (SUM159 and BT549) were plated in 24-well ultralow attachment plates with mammary epithelial growth medium (MEGM) (5,000 cells/well). Both cell lines were then treated with 1 μg/well/6 wells of silicon particles loaded with DOPC nanoliposomes/siRNA. The primary MSs were allowed to grow for 3 days. MFs were counted on Day 3 with a GelCount colony counter (Oxford Optronix, Oxford, UK). Mammosphere-Forming Efficiency (MSFE) was calculated by dividing the number of MSs by the number of seeded cells. In addition, established MSs were serially passaged by dissociation, and single cells were re-plated on fresh 24-well, ultra-low-attachment plates to form secondary mammospheres, which were counted after 3 days. One-way ANOVA and Tukey tests were performed. A p-value of less than 0.05 was considered significant.
To develop a more clinically relevant model, two of the identified candidates (MLF2 and RPL39L) were compared to Stat3 (positive control), and their siRNA sequences identified within the shRNA vector. These siRNAs were then packaged in nanoliposomes and tested for MSFE using the same protocol as above, except for the addition of packaged siRNA instead of lentiviral shRNA. (N.B. wherein shRNA requires a promoter and needs to be transcribed in order to function, siRNA functions by itself once incorporated into recipient cells).
To develop siRNA nanotherapeutics targeting TIC, studies have been conducted to confirm the essential roles of the candidate TIC genes. Exemplary siRNA oligonucleotides specific for STAT3, MFL2, and RPL39L were formulated into nanoliposomes, which were then loaded into porous silicon MSV particles. For in vitro assay, BT549 and SUM159 cells were incubated with MSV/siRNA, and primary and secondary MSFE was measured. […] For in vivo assessment, SCID/Beige mice were inoculated with SUM159 tumor, and treated with MDS/siRNA delivered by tail vein injection. Cells were then isolated from tumor mice 3 weeks later, and MSFE was measured. […] These studies indicate that 1) MDS/siRNA could successfully be delivered to tumor tissues effectively in vivo, 2) uptake of MDS/siRNA by TIC was efficient, and 3) MFL2 and RPL39L were essential genes for TIC.
The siRNA sequences of two candidate genes RPL39 and MLF2 were packaged in nanoliposomes and the effects on MSFE determined in vitro, as described above, using packaged siRNA instead of lentiviral shRNA.

With `O=S1(=O)N[C@@]2(CN1CC(F)(F)F)[C@@H]1CC[C@H]2Cc2ccc(/C=C/CN3CCC(C(F)(F)F)CC3)cc2C1` [MRK-003], the “BT 549 Z-score” value is −0.731 in the data set with BT549 [1] (listed as AA_GSI_pos1_1); −0.688 in the data set on BT549 [1] (listed as AA_GSI_pos1_6); −0.519 in the data set with BT549 [1] (listed as AA_GSI_pos1_8); −0.719 with BT549 [1] (listed as AA_GSI_pos1_10); −0.675 with BT549 [1] (listed as AA_GSI_pos1_11); −0.463 in the data set on BT549 [1] (listed as AA_GSI_pos2_5). Moreover, the results for the “BT 549 Z-score” value with BT549 [1] (listed as AA_GSI_pos2_8), in the data set on BT549 [1] (listed as AA_GSI_pos2_10) and in the data set with BT549 [1] (listed as AA_GSI_pos2_13) were −0.894, −0.685 and −0.397, respectively. For the same compound, the “SUM 159 Z-score” value in the data set with SUM159 [2] (listed as AA_GSI_pos1_1) is −2.026; in the data set on SUM159 [2] (listed as AA_GSI_pos1_6), −1.904; in the data set on SUM159 [2] (listed as AA_GSI_pos1_8) it was −1.850; in the data set on SUM159 [2] (listed as AA_GSI_pos1_10) it was −1.697; with SUM159 [2] (listed as AA_GSI_pos1_11), −2.078; in the data set with SUM159 [2] (listed as AA_GSI_pos2_5), −1.923. Besides, the “SUM 159 Z-score” value in the data set with SUM159 [2] (listed as AA_GSI_pos2_8) is listed as −1.971; in the data set on SUM159 [2] (listed as AA_GSI_pos2_10), −2.139; with SUM159 [2] (listed as AA_GSI_pos2_13) it was −1.857. Also, in the data set on SUM159 [3] (10 μM concentration), the MS formation result is listed as “dramatically reduced”. Further, the mammosphere forming efficiency entry is recorded as “dose-dependent decrease” in the data set on SUM159 [3] and “inhibiting MS formation” in the data set with SUM159 [3] (listed as notch inhibitor).

With `CC(=O)O[C@@]12CO[C@@H]1C[C@H](O)[C@@]1(C)C(=O)[C@H](O)C3=C(C)[C@@H](OC(=O)[C@H](O)[C@@H](NC(=O)OC(C)(C)C)c4ccccc4)C[C@@](O)([C@@H](OC(=O)c4ccccc4)[C@H]21)C3(C)C` [docetaxel], in data set [4] (20 mg/kg docetaxel, next 14 days), the tumor growth entry is given as “Significant inhibition”. Further, the “percentage of ALDF-positive cells” value in data set [4] (residual tumor after 20 mg/kg docetaxel, vs control samples) is “higher”.

Turning to “scrambled siRNA: control siRNA; sense SEQ ID NO: 1 ATCTCGCTTGGGCGAGAGTAAG, antisense SEQ ID NO: 17 CTTACTCTCGCCCAAGCGAGAG (listed as DNA, chemistry not given here) [reference compound]”, in the data set on MDAMB231 lung metastasis, the “lung metastasis (animals with metastasis / animals), IVIS imaging” value is recorded as 12/12. Moreover, in the data set with BT549 [5] (1 μg/well silicon particles loaded with DOPC nanoliposomes/siRNA, counted Day 3), the “MSFE, primary MSs” value is on record as 2.4%. Further, the “MSFE, secondary MSs” value in the data set with BT549 [5] (silicon particles loaded with DOPC nanoliposomes/siRNA, re-plated, counted after 3 days) is 1%.

The values above are taken from patent US9546367B2, “siRNA compositions and methods for inhibiting gene expression in tumor initiating cells of breast cancer” (priority 2011, dated 2017).
